Data: US20210115104A1, “AMYLIN ANALOGUES” (Zealand Pharma A/S, priority 2015, published 2021)
*1 amine or outer side, *2 acyl side, *3 side chain or, on linkers, in order; H or OH if unused. Where a SMILES comes first, the peptide text is derived from it. Bridges are numbered along the chain shown (N, C = ends). [ ]: non-standard residue; d: D form. The star is where a group is joined. C20 diacid = O=C(O)CCCCCCCCCCCCCCCCCCC(=O)*; γGlu = O=C(O)[C@H](CCC(=O)[*:2])N[*:1]; NMeI = CC[C@H](C)[C@H](NC)C(=O)O; Sar = CNCC(=O)O

Columns and labels:
[1] = Assessment of physical stability (Thioflavin T fibrillation); format: physicochemical; design: key: FND = fibrillation not detected; FD = fibrillation detected; settings: 1 mg/ml, 40° C., ThT; for Fibrillation pH 4.0 (Ac): 50 mM acetate buffer pH 4.0, 96 hours; for Fibrillation pH 7.0 (His): 50 mM histidine buffer pH 7.0, 96 hours; for Fibrillation pH 7.0 (Phos.): 50 mM phosphate buffer pH 7.0, 96 hours
Method in brief: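 1 mg/ml peptide with 40 μM ThT in 50 mM phosphate pH 7.0, 50 mM histidine pH 7.0 or 50 mM acetate pH 4.0, in triplicate. Fluorescence read every 10 min after 300 s agitation over 96 h at 40 °C. Lag-time (h) is the intersection of linear fits to stable and growth phases.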

[2] = biological target: T1, human amylin receptor 3 (hAMYR3), hCTR2 co-expressed with hRAMP3 (Homo sapiens, UniProt O60896+P30988); assay: hAMYR3 cAMP assay (AlphaScreen) in COS7 cells; format: cell-based; settings: cAMP induction, COS7 cells expressing hAMYR3; Table 1; read-out: hAMYR3 EC50
T1 construct: expressed in transfected cells
T1 sequence (P30988 25-474): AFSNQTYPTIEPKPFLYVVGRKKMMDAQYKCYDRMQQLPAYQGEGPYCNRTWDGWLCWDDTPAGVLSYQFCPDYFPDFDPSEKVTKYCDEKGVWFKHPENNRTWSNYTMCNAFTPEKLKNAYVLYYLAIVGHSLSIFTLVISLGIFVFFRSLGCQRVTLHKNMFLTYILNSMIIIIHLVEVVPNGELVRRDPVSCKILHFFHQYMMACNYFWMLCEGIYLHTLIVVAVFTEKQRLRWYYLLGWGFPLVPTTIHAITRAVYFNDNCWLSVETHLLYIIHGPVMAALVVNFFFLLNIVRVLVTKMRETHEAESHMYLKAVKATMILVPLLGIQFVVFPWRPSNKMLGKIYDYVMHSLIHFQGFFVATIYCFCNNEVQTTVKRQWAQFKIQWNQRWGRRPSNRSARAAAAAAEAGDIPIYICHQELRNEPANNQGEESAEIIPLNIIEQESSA
T1 sequence (O60896 24-148 partner): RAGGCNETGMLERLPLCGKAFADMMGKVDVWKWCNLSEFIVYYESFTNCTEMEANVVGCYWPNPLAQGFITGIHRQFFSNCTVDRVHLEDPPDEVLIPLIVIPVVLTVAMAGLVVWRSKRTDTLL
Method in brief: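 Stable COS7 clone co-expressing hCTR2 and hRAMP3 was exposed to increasing peptide concentrations in Tyrode buffer (pH 7.4) with 100 µM IBMX and 0.1% casein for 15 min at 37 °C. Lysate cAMP was measured by AlphaScreen; EC50 came from 4-parameter logistic fitting.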

[3] = biological target: T2, human calcitonin receptor (hCTR2) (Homo sapiens, UniProt P30988); assay: hCTR2 cAMP assay (AlphaScreen) in COS7 cells; format: cell-based; settings: cAMP induction, COS7 cells expressing hCTR2; Table 1; read-out: hCTR2 EC50
T2 construct: expressed in transfected cells
T2 sequence (P30988 25-474): T1 sequence (P30988 25-474)
Method in brief: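 Stable hCTR2 clone in RAMP-naïve COS7 cells stimulated 15 min at 37 °C with increasing peptide concentrations in Tyrode buffer pH 7.4 containing IBMX and 0.1% casein. cAMP in lysates measured by AlphaScreen; EC50 from 4-parameter logistic fit.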

| Fibrillation pH 4.0 (Ac) [1] | Fibrillation pH 7.0 (His) [1] | Fibrillation pH 7.0 (Phos.) [1] | EC50 [2] [nM] | EC50 [3] [nM] | SMILES |
| --- | --- | --- | --- | --- | --- |
| FND | FND | FND | 0.23 | 0.079 | CC[C@H](C)[C@@H](C(=O)N[C@@H](CC(C)C)C(=O)N[C@@H](CO)C(=O)N[C@@H](CO)C(=O)N[C@H](C(=O)N[C@@H](CCC(=O)O)C(=O)N[C@H](C(=O)NCC(=O)N[C@@H](CO)C(=O)N[C@@H](CCC(=O)O)C(=O)N[C@H](C(=O)N1CCC[C@H]1C(N)=O)[C@@H](C)O)C(C)C)[C@@H](C)O)N(C)C(=O)[C@H](C)NC(=O)CN(C)C(=O)[C@H](Cc1ccccc1)NC(=O)[C@H](CO)NC(=O)[C@H](CO)NC(=O)[C@H](CCCNC(=N)N)NC(=O)[C@H](Cc1c[nH]cn1)NC(=O)[C@H](CC(C)C)NC(=O)[C@H](Cc1ccccc1)NC(=O)[C@H](CC(=O)O)NC(=O)[C@H](C)NC(=O)[C@H](CC(C)C)NC(=O)[C@H](CCCNC(=N)N)NC(=O)[C@H](CCC(N)=O)NC(=O)[C@@H](NC(=O)[C@H](C)NC(=O)[C@@H]1CSSC[C@H](NC(=O)[C@H](CCCNC(=N)N)NC(=O)CC[C@H](NC(=O)CCCCCCCCCCCCCCCCCCC(=O)O)C(=O)O)C(=O)N[C@@H](CC(N)=O)C(=O)N[C@@H]([C@@H](C)O)C(=O)N[C@@H](C)C(=O)N[C@@H]([C@@H](C)O)C(=O)N1)[C@@H](C)O [Compound 1, [19CD]-isoGlu-R-C( )-NTAT-C( )-ATQRLADFLHRSSF-Gly(Me)-A-Ile(Me)-LSSTEVGSETP-NH2] ({C20 diacid-γGlu}-RCNTATCATQRLADFLHRSSF[Sar]A[NMeI]LSSTEVGSETP-NH2; disulfide 2-7) |
| FND | FD | FND | 0.33 | 0.19 | CC[C@H](C)[C@@H](C(=O)N[C@@H](CC(C)C)C(=O)N[C@@H](CO)C(=O)N[C@@H](CO)C(=O)N[C@H](C(=O)N[C@@H](CCC(=O)O)C(=O)N[C@H](C(=O)NCC(=O)N[C@@H](CO)C(=O)N[C@@H](CCC(=O)O)C(=O)N[C@H](C(=O)N1CCC[C@H]1C(N)=O)[C@@H](C)O)C(C)C)[C@@H](C)O)N(C)C(=O)[C@H](C)NC(=O)CN(C)C(=O)[C@H](Cc1ccccc1)NC(=O)[C@@H](NC(=O)[C@H](CO)NC(=O)[C@H](CCCNC(=N)N)NC(=O)[C@H](Cc1c[nH]cn1)NC(=O)[C@H](CC(C)C)NC(=O)[C@H](Cc1ccccc1)NC(=O)[C@H](Cc1c[nH]cn1)NC(=O)[C@H](C)NC(=O)[C@H](CC(C)C)NC(=O)[C@H](CCCNC(=N)N)NC(=O)[C@H](CCC(N)=O)NC(=O)[C@@H](NC(=O)[C@H](C)NC(=O)[C@@H]1CSSC[C@H](NC(=O)[C@H](CCCNC(=N)N)NC(=O)CC[C@H](NC(=O)CCCCCCCCCCCCCCCCCCC(=O)O)C(=O)O)C(=O)N[C@@H](CC(N)=O)C(=O)N[C@@H]([C@@H](C)O)C(=O)N[C@@H](C)C(=O)N[C@@H]([C@@H](C)O)C(=O)N1)[C@@H](C)O)C(C)C [Compound 20, [19CD]-isoGlu-R-C( )-NTAT-C( )-ATQRLAHFLHRSVF-Gly(Me)-A-Ile(Me)-LSSTEVGSETP-NH2] ({C20 diacid-γGlu}-RCNTATCATQRLAHFLHRSVF[Sar]A[NMeI]LSSTEVGSETP-NH2; disulfide 2-7) |
